In patent JPH10251228A, “ニューロキニンアンタゴニストとしてのピペリジン誘導体” (Schering Plough Corp, priority 1997, dated 1998):
Like-named read-outs stand apart in the source and are kept apart here.

Key:
[1] = molecular target: T1, human NK-1 receptor (ヒトNK-1レセプター) (Homo sapiens, UniProt P25103); assay: Neurokinin receptor binding assay, human NK1 ([3H]-substance P displacement, transfected CHO cell membranes)
T1 construct: expressed in transfected cells; host or cells: Chinese hamster ovary (CHO) cells, G418-selected; membranes prepared

[2] = molecular target: T2, human NK-2 receptor (ヒトNK-2レセプター) (Homo sapiens, UniProt P21452); assay: Neurokinin receptor binding assay, human NK2 ([3H]-neurokinin A displacement, transfected CHO cell membranes)
T2 construct: expressed in transfected cells; host or cells: Chinese hamster ovary (CHO) cells, G418-selected; membranes prepared
T2 sequence (P21452 1-398): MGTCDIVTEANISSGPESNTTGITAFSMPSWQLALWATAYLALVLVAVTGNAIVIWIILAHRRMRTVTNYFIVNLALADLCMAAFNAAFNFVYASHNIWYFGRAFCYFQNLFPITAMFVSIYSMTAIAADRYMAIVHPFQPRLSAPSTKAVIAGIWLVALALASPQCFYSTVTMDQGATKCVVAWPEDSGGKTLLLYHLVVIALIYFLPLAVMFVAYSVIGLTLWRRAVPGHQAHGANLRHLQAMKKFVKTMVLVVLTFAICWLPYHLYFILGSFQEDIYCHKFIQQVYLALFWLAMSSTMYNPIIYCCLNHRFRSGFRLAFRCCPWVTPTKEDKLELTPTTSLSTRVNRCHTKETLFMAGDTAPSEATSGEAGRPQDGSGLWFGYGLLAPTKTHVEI

[3] = neurokinin receptor binding assay, [3H]-neurokinin A 1.0 nM, CHO membranes, Cheng-Prusoff, read-out: NK2 Ki (binding)

T1 sequence (P25103 whole entry): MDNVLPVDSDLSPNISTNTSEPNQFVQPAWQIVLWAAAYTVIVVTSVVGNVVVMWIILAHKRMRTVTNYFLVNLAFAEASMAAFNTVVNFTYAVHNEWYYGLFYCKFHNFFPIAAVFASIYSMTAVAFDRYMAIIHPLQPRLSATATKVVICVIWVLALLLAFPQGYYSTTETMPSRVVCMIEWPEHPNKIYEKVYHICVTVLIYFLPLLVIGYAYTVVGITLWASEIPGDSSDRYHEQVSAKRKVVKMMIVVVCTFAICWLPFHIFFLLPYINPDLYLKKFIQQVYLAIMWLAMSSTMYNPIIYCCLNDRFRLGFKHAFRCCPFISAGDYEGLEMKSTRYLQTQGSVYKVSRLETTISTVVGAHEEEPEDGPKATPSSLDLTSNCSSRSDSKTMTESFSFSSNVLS

Compound | Ki [1] | Ki [2] | Ki [2, 3] | Ki ([1]; neurokinin receptor binding assay, [3H]-substance P 0.8 nM, CHO membranes, Cheng-Prusoff, read-out: NK1 Ki (binding))
COc1ccccc1CN(C)C(=O)CC(CCN1CCC(O)(c2ccccc2)CC1)c1ccc(Cl)c(Cl)c1 (stereo not drawn) [β-(3,4-ジクロロフェニル)-4-ヒドロキシ-N-[(2-メトキシフェニル)メチル]-N-メチル-4-フェニル-1-ピペリジンペンタミド] | 0.0075 µM | 0.033 µM | – | –
COc1cccc(CN(C)C(=O)CC(CCN2CCC(O)(c3ccccc3)CC2)c2ccc(Cl)c(Cl)c2)c1 (stereo not drawn) [β-(3,4-ジクロロフェニル)-4-ヒドロキシ-N-[(3-メトキシフェニル)メチル]-N-メチル-4-フェニル-1-ピペリジンペンタミド] | 0.012 µM | – | 0.215 µM | –
CN(CCc1ccccc1)C(=O)CC(CCN1CCC(O)(c2ccccc2)CC1)c1ccc(Cl)c(Cl)c1 (stereo not drawn) [β-(3,4-ジクロロフェニル)-4-ヒドロキシ-N-メチル-4-フェニル-N-(2-フェニルエチル)-1-ピペリジンペンタミド] | 0.07 µM | 0.046 µM | – | –
CN(Cc1ccccc1)C(=O)CC(CCN1CCC(O)(c2ccccc2)CC1)c1ccc(Cl)c(Cl)c1 (stereo not drawn) [β-(3,4-ジクロロフェニル)-4-ヒドロキシ-N-メチル-4-フェニル-N-(フェニルメチル)-1-ピペリジンペンタミド] | 0.0068 µM | – | 0.108 µM | –
CN(C(=O)CC(CCN1CCC(O)(c2ccccc2)CC1)c1ccc(Cl)c(Cl)c1)c1ccccc1 (stereo not drawn) [β-(3,4-ジクロロフェニル)-4-ヒドロキシ-N-メチル-N,4-ジフェニル-1-ピペリジンペンタミド] | – | 0.0052 µM | – | 0.15 µM
